The source of these data is ChEMBL document CHEMBL6127075, “Tetrazoles: A multi-potent motif in drug design” (Eur J Med Chem, 2024).

For orientation: MIC means the smallest concentration in the dilution series that meets the test's criterion for growth inhibition. The IC50 is the midpoint of a concentration-inhibition curve. The pIC50 is the IC50 on a negative log10 scale, so that one unit is a factor of ten.

Structures are written as SMILES. pIC50: −log10 of the molar value. Values after ≈ are worked out from the molar mass of the structure shown. A value given as a limit tells only on which side of the number the result lay.

One series deals with Aspergillus flavus. In words: Antifungal activity against Aspergillus flavus assessed as inhibition of fungal growth. Format: functional.
Series [1] concerns MCF7. The experiment in a line: Cytotoxicity against human MCF7 cells assessed as reduction in cell growth at 25 uM incubated for 48 hrs by MTT assay relative to control. Set-up: scale not given: the % may be the effect or the level left. Format: functional. In general terms: Tetrazolium assays rely on reduction of a dye to a coloured formazan, in cell work by metabolically active cells.

The subject of another series is CCRF-CEM. The experiment in a line: Cytotoxicity against human CCRF-CEM cells assessed as reduction in cell growth at 25 uM incubated for 48 hrs by MTT assay relative to control. The format is functional. The arrangement: scale not given: the % may be the effect or the level left.
Series [2] in a line: Antioxidant activity assessed as DPPH radical scavenging activity after 30 mins by spectrophotometric analysis. The format is functional. For orientation: Loss of DPPH colour is used to gauge radical scavenging.
Another series has as its system DU-145. In words: Antiproliferative activity against human DU-145 cells assessed as inhibition of cell growth measured after 24 hrs by MTT assay. The format is functional, cell-based. Particulars: DU-145, 24 h.
The nature of series [3]: Antiproliferative activity against human RWPE-1 cells assessed as inhibition of cell growth measured after 24 hrs by MTT assay. Format: toxicity, cell-based.
Another series relates to PC-3. In words: Antiproliferative activity against human PC-3 cells assessed as inhibition of cell growth measured after 24 hrs by MTT assay. To be noted: PC-3, 24 h. Format: functional, cell-based.
The nature of series [4]: Antagonist activity at NMDA receptor (unknown origin). The arrangement: species or system Homo sapiens.
The test system of series [5] is Escherichia coli. In words: Antibacterial activity against Escherichia coli assessed as bacterial growth inhibition after 24 hrs by broth macro dilution method. Format: functional.
The next series deals with Pseudomonas aeruginosa. The experiment in a line: Antibacterial activity against Pseudomonas aeruginosa assessed as bacterial growth inhibition after 24 hrs by broth macro dilution method. The format is functional.
Series [6] has as its target T1, Tyrosine-protein phosphatase non-receptor type 1 (Homo sapiens, UniProt P18031).
T1 sequence (P18031 whole entry): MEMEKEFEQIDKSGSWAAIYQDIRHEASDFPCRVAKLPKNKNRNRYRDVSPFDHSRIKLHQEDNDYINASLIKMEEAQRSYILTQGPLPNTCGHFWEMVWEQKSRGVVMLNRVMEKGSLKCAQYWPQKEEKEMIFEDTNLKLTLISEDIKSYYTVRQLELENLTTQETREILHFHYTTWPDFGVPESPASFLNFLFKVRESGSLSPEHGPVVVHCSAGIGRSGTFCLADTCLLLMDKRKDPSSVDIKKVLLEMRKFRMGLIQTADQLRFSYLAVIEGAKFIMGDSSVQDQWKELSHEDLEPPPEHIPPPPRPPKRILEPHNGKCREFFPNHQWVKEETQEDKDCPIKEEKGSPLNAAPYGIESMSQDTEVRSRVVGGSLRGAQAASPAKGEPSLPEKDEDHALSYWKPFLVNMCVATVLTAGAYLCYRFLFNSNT
The experiment in a line: Inhibition of PTP1B (unknown origin).

Series [7] concerns the target Type-1 angiotensin II receptor (Homo sapiens) (UniProt P30556). In words: Inhibition of Angiotensin-2 receptor (unknown origin).
The test system of series [8] is Escherichia coli. In words: Antibacterial activity against Escherichia coli ATCC 25922 assessed as reduction in microbial growth by incubated for 18 hrs CLSI based broth microdilution method. The format is functional. Background: In broth dilution the organism is exposed to a series of concentrations in liquid medium.
For series [9], the system named is Staphylococcus epidermidis. In words: Antibacterial activity against Staphylococcus epidermidis ATCC 12228 assessed as reduction in microbial growth by incubated for 18 hrs CLSI based broth microdilution method. Format: functional.
Series [10] relates to Escherichia coli. In words: Antimicrobial activity against Escherichia coli NCTC 8196 assessed as reduction in microbial growth measured fro 18 hrs by two-fold serial dilution method. The format is functional.
The test system of the next series is HepG2. The experiment in a line: Cytotoxicity against human HepG2 cells assessed as reduction in cell viability incubated for 24 hrs by MTT assay. The format is functional, cell-based. Particulars: HepG2, 24 h.
The test system of series [11] is MCF7. In words: Cytotoxicity against human MCF7 cells assessed as reduction in cell viability incubated for 24 hrs by MTT assay. The format is functional, cell-based. Particulars: MCF7, 24 h.
The next series deals with Pichia kudriavzevii. In words: Antifungal activity against Candida krusei ATCC 6258 assessed as inhibition of fungal growth incubated for 24 hrs by microtiter plate reader assay. Format: functional.
In another series the target is Cholinesterase (Homo sapiens, UniProt P06276). In words: Inhibition of BChE (unknown origin) using acetylthiocholine iodide as substrate preincubated for 20 mins followed by substrate addition and measured after 5 mins by Ellman's method.
Sequence of Cholinesterase (P06276 whole entry): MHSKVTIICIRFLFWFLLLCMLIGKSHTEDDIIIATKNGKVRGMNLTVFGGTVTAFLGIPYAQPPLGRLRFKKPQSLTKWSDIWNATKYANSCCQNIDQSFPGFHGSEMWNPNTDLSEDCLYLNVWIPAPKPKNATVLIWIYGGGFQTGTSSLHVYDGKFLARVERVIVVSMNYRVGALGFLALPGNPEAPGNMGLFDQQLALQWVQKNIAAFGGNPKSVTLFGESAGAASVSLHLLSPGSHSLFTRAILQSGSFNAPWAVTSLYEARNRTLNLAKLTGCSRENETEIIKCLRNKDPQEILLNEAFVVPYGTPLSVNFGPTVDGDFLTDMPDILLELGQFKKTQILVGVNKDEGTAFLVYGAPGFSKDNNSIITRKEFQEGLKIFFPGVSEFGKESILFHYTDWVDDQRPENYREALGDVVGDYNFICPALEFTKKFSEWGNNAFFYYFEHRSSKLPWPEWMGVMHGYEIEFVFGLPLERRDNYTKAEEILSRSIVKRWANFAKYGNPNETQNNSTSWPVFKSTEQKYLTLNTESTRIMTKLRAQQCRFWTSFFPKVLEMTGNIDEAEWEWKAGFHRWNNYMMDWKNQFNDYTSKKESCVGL
Series [12] relates to Staphylococcus aureus. In words: Antibacterial activity against Staphylococcus aureus MTCC-96 assessed as bacterial growth inhibition after 24 hrs by broth macro dilution method. Format: functional.
The test system of a further series is Nannizzia gypsea. The experiment in a line: Antifungal activity against Microsporum gypseum assessed as reduction in fungal growth. The format is functional.
Series [13] has as its system Staphylococcus aureus. In words: Antibacterial activity against Staphylococcus aureus MTCC-739 assessed as bacterial growth inhibition after 24 hrs by broth macro dilution method. Format: functional.
In the next series the test system is Micrococcus luteus. The experiment in a line: Antibacterial activity against Micrococcus luteus assessed as bacterial growth inhibition after 24 hrs by broth macro dilution method. The format is functional.

Sequence of Type-1 angiotensin II receptor (Homo sapiens) (P30556 whole entry, looked up): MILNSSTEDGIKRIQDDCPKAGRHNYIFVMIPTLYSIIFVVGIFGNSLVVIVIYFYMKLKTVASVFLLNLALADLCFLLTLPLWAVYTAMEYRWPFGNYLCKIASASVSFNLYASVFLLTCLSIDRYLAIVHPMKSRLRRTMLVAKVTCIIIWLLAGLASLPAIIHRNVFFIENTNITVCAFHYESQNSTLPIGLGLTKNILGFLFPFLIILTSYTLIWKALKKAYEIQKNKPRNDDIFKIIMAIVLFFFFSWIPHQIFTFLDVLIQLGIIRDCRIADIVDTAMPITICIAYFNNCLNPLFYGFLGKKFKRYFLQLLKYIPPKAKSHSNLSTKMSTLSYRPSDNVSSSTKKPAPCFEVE

Regarding `COc1ccc(-n2nnnc2SCc2cn(-c3ccc4c(cnn4C)c3)nn2)cc1`, the MIC in the series with Aspergillus flavus came out at 10 µg/mL (≈ 23.8 µM).

`Brc1c(Br)c(Br)c2c(ncn2CCCn2nnnc2-c2ccccc2)c1Br`: the Activity in the series with MCF7 [1] and with CCRF-CEM was below 1% throughout.

For `C1=C(c2nnn(Cc3cn(Cc4ccccc4)nn3)n2)COc2ccccc21`, the IC50 in series [2] was 27.63 µg/mL (≈ 74.4 µM).

On to `O=C1N(Cc2ccc(Br)cc2)c2ccccc2C1(O)Cc1nnn[nH]1` (stereo unspecified), for which the negative-log IC50 (pIC50) with DU-145 is 4.93; with PC-3, 4.99. In [3], the IC50 at 24 h was 76 µM.

In series [4], `O=C(O)[C@H]1C[C@@H](Cc2nnn[nH]2)CCN1` (single isomer, unassigned) showed a pIC50 of 7.00.

As to `COc1ccc(-c2nnc(C[Se]c3nnn[nH]3)o2)cc1`, the IC50 in series [2] was found to be 27.63 µg/mL (≈ 81.9 µM).

Turning to `CO/N=C1\CN(c2nc3c(cc2F)c(=O)c(C(=O)O)cn3C2CC2)CC1CN` (stereo unspecified) [GEMIFLOXACIN], the MIC with Escherichia coli [5] and with Pseudomonas aeruginosa was 10 µg/mL (≈ 25.7 µM) in each case.

Take `Cc1cn(C2OC(CO)CC2n2nnnc2Cc2c[nH]c3ccccc23)c(=O)[nH]c1=O` (stereo unspecified): the IC50 in series [2] amounted to 25.87 µg/mL (≈ 61.1 µM).

In [6], `OC1C2CC3CC1CC(C2)C3(Cc1nnn[nH]1)c1ccc(-c2ccc(F)cc2)cc1` (stereo unspecified) gave a pIC50 of 8.43.

`O=P(O)(O)CN[C@@H](Cc1ccc(-c2ccccc2)cc1)c1nnn[nH]1` showed a pIC50 in [7] of 9.05.

Turning to `Fc1ccccc1-n1nnnc1NCc1ccco1`, the MIC (with Escherichia coli [8]; in [9]; in the series on Escherichia coli [10]) was 2 µg/mL in each case.

For `Clc1ccc(-c2nn[se]c2-n2nnc(-c3ccccc3Cl)n2)cc1`, the pIC50 in the series with HepG2 and in the series with MCF7 [11] was 4.36 each time.

For `OC(Cn1cncn1)(Cn1cncn1)c1ccc(F)cc1F` [FLUCONAZOLE], the MIC in the series on Pichia kudriavzevii came out at 7.8 µg/mL (≈ 25.5 µM).

Turning to `COc1ccccc1C1=C(C#N)/C(=C(/C)c2nnn[nH]2)NC(C)(c2ccccc2OC)C1` (stereo unspecified), the negative-log IC50 (pIC50) against Cholinesterase was 6.54.

On to `Cn1ncc2cc(-n3cc(CSc4nnnn4-c4cccc([N+](=O)[O-])c4)nn3)ccc21`, for which the minimum inhibitory concentration (MIC) in the series with Staphylococcus aureus [12] came to 5 µg/mL (≈ 11.5 µM); in the series with Escherichia coli [5], 5 µg/mL (≈ 11.5 µM); in the series with Nannizzia gypsea, 11 µg/mL (≈ 25.3 µM); in the series with Staphylococcus aureus [13] it was 5 µg/mL (≈ 11.5 µM); in the series with Pseudomonas aeruginosa, 5 µg/mL (≈ 11.5 µM); in the series on Micrococcus luteus, 5 µg/mL (≈ 11.5 µM).

As to `CCC(C)n1ncn(-c2ccc(N3CCN(c4ccc(OCC5COC(Cn6cncn6)(c6ccc(Cl)cc6Cl)O5)cc4)CC3)cc2)c1=O` (stereo unspecified) [ITRACONAZOLE], the MIC with Nannizzia gypsea is 10 µg/mL (≈ 14.2 µM); with Aspergillus flavus, 8 µg/mL (≈ 11.3 µM).

As for `Cn1nnnc1SCC(=O)N1CCN(C2CCCCC2)CC1`, the MIC in the series with Pichia kudriavzevii is 3.9 µg/mL (≈ 12 µM).

Take `O=P(O)(O)CN[C@@H](Cc1ccc2oc3ccccc3c2c1)c1nnn[nH]1`: the negative-log IC50 (pIC50) in [7] was 8.22.
